Experiment [1] deals with PDE1 partially purified from bovine heart. Put plainly: PDE1 biochemical enzyme assay ([3H]cAMP hydrolysis). Particulars: 100 μM test substance; 1.0 μM [3H]cAMP, calmodulin, Tris pH 7.5, 20 min, 30° C. The source says: (§1) In this example, racemic flosequinan, (R)-(+)-flosequinan, and (S)-(−)-flosequinan were subjected to biochemical enzyme assays to determine their respective percent inhibition of a variety of phosphodiesterases (PDE1-PDE6). The (R)-(+)-flosequinan and (S)-(−)-flosequinan used in this example was resolved by high-performance liquid chromatography (HPLC) as follows. A 5.0 g sample of a racemic mixture of flosequinan was resolved over a 10 cm ID×50 cm L CHIRALCEL OD HPLC column (Chiral Technologies, Exton, Pa.) at 25° C. and with a flow rate of 1.0 ml/minute such that the column pressure was 37 bar. The mobile phase employed was 100% methanol and the detection of the mixture was performed at 270 nm. […] A total of 2.1 g of the (−) enantiomer having an optical purity greater than 99% was produced. A total of 2.3 g of the (+) enantiomer having an optical purity greater than 99% was produced.
(§2) PDE1: PDE1 partially purified from bovine heart was used. A racemic mixture of flosequinan, and each enantiomer of flosequinan, all at a molar concentration of 100 μM, were independently incubated with 13 μg PDE1 enzyme, 1.0 μM [^3H]cAMP and Cal2/calmodulin in Tris buffer pH 7.5 for 20 minutes at 30° C. The reaction was terminated by boiling for 2 minutes, and the resulting AMP was converted to adenosine by addition of 10 mg/ml snake venom nucleotidase and further incubation at 30° C. for 10 minutes. Unhydrolyzed cAMP was bound to AGI-X2 resin, and the remaining [^3H]adenosine in the aqueous phase was quantitated by scintillation counting.

The target of experiment [2] is T1, PDE5 partially purified from human platelets (Homo sapiens, UniProt O76074).
T1 construct: PDE5 partially purified from human platelets was used; from tissue; host or cells: human platelets
Put plainly: PDE5 biochemical enzyme assay ([3H]cGMP hydrolysis). Particulars: 100 μM test substance; 1 μM cGMP, Tris pH 7.5, 20 min, 30° C.
Excerpt: as §1
PDE5: PDE5 partially purified from human platelets was used. A racemic mixture of flosequinan, and each enantiomer of flosequinan, all at a molar concentration of 100 μM, were independently incubated with 120 μg PDE5 enzyme and 1 μM cGMP containing 0.01 μM [^3H]cGMP in Tris buffer pH 7.5 for 20 minutes at 30° C. The reaction was terminated by boiling for 2 minutes, and the resulting GMP was converted to guanosine by addition of 10 mg/ml snake venom nucleotidase and further incubation at 30° C. for 10 minutes. Unhydrolyzed cGMP was bound to AGI-X2 resin, and the remaining [^3H]guanosine in the aqueous phase was quantitated by scintillation counting.

In experiment [3] the target is T2, PDE2 partially purified from human platelets (Homo sapiens, UniProt O00408).
T2 construct: PDE2 partially purified from human platelets was used; from tissue; host or cells: human platelets
T2 sequence (O00408 whole entry): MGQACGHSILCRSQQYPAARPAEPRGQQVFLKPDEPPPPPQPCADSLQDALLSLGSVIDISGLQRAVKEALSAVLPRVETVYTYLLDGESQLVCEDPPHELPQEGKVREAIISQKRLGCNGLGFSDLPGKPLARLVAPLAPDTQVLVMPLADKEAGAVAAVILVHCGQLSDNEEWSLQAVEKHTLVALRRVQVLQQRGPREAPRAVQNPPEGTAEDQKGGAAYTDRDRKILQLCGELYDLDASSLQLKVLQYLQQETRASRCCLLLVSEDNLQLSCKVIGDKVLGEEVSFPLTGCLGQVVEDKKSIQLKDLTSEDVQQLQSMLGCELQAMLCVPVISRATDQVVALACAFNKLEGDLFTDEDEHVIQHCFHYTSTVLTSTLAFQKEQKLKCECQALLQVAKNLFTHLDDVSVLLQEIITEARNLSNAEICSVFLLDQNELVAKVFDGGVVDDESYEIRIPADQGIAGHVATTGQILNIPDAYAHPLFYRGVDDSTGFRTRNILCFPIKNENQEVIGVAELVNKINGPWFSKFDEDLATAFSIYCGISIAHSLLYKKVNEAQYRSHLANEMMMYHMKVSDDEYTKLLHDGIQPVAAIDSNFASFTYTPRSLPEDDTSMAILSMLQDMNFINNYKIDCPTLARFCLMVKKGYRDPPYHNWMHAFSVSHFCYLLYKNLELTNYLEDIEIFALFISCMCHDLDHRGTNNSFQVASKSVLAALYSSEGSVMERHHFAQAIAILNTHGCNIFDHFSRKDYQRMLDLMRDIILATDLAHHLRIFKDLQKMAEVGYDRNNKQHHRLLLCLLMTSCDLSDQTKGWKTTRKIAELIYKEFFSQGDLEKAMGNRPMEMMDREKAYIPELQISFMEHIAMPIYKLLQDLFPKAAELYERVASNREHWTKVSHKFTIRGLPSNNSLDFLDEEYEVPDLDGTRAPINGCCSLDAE
Put plainly: PDE2 biochemical enzyme assay ([3H]cAMP hydrolysis). To be noted: 100 μM test substance; 25 μM cAMP, Tris pH 7.5, 20 min, 30° C.
Excerpt: as §1
as §2, with “PDE2: PDE2” for “PDE1: PDE1”, “human platelets” for “bovine heart”, “23” for “13”, “PDE2” for “PDE1”, “25 μM cAMP containing 0.05” for “1.0”, “[^3H]cAMP” for “[^3H]cAMP and Cal2/calmodulin”

The test system of experiment [4] is PDE4 partially purified from human U-937 pronocytic cells. Put plainly: PDE4 biochemical enzyme assay ([3H]cAMP hydrolysis). Particulars: 100 μM test substance; 1 μM cAMP, Tris pH 7.5, 20 min, 30° C.
Excerpt: as §1
as §2, with “PDE4: PDE4” for “PDE1: PDE1”, “human U-937 pronocytic cells” for “bovine heart”, “20” for “13”, “PDE4 enzyme and 1 μM cAMP containing 0.01” for “PDE1 enzyme, 1.0”, “[^3H]cAMP” for “[^3H]cAMP and Cal2/calmodulin”

For experiment [5], the target named is T3, PDE6 partially purified from bovine retinal rod and activated by trypsin (Bos taurus, UniProt P11541+P23439).
T3 construct: from tissue; host or cells: bovine retinal rod
T3 sequence (P11541 2-856 limits assumed): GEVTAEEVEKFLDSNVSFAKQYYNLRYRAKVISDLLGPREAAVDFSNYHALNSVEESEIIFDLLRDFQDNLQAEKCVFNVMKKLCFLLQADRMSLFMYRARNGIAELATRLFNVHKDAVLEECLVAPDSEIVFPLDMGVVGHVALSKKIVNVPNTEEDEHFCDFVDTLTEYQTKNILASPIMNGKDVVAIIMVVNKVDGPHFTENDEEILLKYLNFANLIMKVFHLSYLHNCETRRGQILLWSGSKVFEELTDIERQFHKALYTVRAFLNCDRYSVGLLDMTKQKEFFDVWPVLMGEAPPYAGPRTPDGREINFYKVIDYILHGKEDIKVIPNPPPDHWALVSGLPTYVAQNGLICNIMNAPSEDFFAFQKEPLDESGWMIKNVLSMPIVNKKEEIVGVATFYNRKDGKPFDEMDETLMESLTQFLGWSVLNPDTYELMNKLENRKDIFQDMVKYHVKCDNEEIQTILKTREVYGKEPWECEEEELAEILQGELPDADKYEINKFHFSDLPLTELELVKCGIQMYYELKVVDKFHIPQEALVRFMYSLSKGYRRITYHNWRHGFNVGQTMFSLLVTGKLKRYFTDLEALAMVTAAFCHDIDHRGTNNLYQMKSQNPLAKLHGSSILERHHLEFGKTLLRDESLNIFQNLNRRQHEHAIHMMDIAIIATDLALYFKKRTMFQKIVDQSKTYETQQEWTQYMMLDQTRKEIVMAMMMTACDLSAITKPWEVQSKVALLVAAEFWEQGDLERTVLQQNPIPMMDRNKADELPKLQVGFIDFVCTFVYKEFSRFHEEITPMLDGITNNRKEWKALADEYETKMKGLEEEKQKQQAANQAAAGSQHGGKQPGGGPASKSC
T3 sequence (P23439 2-850 limits assumed): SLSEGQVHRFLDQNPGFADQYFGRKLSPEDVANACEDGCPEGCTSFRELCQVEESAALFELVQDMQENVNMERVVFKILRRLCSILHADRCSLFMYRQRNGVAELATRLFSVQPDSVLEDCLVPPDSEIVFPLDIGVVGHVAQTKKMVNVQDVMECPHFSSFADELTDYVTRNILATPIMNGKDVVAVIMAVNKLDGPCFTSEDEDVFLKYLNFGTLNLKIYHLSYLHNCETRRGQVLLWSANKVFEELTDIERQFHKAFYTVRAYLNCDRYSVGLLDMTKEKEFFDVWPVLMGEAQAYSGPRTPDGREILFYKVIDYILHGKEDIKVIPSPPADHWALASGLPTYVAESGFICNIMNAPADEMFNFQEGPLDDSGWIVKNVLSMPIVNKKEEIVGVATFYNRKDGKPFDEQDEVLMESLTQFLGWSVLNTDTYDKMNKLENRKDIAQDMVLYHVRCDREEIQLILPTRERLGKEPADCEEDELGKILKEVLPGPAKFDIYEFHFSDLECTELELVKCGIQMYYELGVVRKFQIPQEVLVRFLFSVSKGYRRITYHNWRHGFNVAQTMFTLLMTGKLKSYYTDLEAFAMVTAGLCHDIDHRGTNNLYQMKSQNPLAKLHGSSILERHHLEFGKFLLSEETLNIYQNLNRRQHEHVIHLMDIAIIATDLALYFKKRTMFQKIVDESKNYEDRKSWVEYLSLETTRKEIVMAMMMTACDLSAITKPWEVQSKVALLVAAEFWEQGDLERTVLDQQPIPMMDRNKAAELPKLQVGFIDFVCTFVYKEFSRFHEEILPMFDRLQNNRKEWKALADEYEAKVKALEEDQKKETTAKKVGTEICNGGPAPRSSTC
Put plainly: PDE6 biochemical enzyme assay ([3H]cGMP hydrolysis). To be noted: 100 μM test substance; 100 μM cGMP, Tris pH 7.5, 20 min, 30° C.
Excerpt: as §1
PDE6: PDE6 partially purified from bovine retinal rod and activated by trypsin was used. A racemic mixture of flosequinan, and each enantiomer of flosequinan, all at a molar concentration of 100 μM, were independently incubated with 0.2 μg/ml active PDE6 and 100 μM cGMP containing 0.1 μM [^3H]cGMP in Tris buffer pH 7.5 for 20 minutes at 30° C. […] Unhydrolyzed cGMP was bound to AGI-X2 resin, and [^3H]guanosine remaining in the aqueous phase was quantitated by scintillation counting.

The target in experiment [6] is T4, PDE3 partially purified from human platelets (Homo sapiens, UniProt Q14432).
T4 construct: PDE3 partially purified from human platelets was used; from tissue; host or cells: human platelets
T4 sequence (Q14432 whole entry): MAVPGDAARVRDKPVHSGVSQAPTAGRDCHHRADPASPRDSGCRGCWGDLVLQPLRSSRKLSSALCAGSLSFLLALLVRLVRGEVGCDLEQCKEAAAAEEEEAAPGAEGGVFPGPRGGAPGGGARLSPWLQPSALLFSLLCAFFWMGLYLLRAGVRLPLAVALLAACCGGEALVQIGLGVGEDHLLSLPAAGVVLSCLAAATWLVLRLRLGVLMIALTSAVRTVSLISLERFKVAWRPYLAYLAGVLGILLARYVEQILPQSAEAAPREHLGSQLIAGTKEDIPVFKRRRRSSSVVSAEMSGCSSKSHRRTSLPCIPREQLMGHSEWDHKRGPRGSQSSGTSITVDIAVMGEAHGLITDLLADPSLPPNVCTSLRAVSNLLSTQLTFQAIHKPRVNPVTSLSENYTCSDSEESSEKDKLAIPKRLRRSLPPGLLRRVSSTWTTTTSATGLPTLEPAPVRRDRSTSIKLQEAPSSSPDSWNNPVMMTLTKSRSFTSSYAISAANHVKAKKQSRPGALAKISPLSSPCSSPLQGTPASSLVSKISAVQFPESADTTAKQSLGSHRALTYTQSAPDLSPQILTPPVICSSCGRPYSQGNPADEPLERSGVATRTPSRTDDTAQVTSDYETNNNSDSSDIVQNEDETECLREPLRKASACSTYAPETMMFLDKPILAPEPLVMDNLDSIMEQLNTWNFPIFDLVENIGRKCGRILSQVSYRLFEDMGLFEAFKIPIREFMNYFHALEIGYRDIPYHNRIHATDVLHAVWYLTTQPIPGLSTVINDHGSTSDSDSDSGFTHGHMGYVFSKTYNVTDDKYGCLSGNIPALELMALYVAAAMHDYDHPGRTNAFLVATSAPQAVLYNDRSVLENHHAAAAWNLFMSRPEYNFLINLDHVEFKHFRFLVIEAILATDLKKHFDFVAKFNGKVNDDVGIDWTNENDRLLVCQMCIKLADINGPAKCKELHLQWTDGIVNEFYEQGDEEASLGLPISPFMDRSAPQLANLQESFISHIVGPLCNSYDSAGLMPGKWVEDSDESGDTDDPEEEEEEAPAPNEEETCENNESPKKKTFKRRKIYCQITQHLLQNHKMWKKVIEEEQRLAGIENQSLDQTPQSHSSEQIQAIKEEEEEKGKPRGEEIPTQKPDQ
Put plainly: PDE3 biochemical enzyme assay ([3H]cAMP hydrolysis). To be noted: 100 μM test substance; 1 μM cAMP, Tris pH 7.5, 20 min, 30° C.
Excerpt: as §1
PDE3: PDE3 partially purified from human platelets was used. A racemic mixture of flosequinan, and each enantiomer of flosequinan, all at a molar concentration of 100 μM, were independently incubated with 13 μg PDE3 enzyme and 1 μM cAMP containing 0.01 μM [^3H]cAMP in Tris buffer pH 7.5 for 20 minutes at 30° C. […] Unhydrolyzed cAMP was bound to AGI-X2 resin, and the remaining [^3H]adenosine in the aqueous phase was quantitated by scintillation counting.

Data on 3 compounds can be found in patent US7084275B2, “Stereospecific enrichment of heterocyclic enantiomers” (R. T. Alamo Ventures I, LLC, priority 2001, dated 2006).

The term inhibition denotes the drop in the measured response relative to a control, in per cent.

For the compound `Cn1cc([S+](C)[O-])c(=O)c2ccc(F)cc21` (racemic) [racemic mixture of flosequinan, 7-fluoro-1-methyl-3-methylsulfinyl-4-quinolone, reference compound], in experiment [1], the “% Inhibition of PDE1” value is reported as 31%. The inhibition at 100 µM in experiment [2] worked out at 11%; in experiment [3], 18%. In addition, the “% Inhibition of PDE4” value in experiment [4] turned out to be 24%.
`Cn1cc([S@@+](C)[O-])c(=O)c2ccc(F)cc21` [(+)-flosequinan, (R)-(+)-7-fluoro-1-methyl-3-methylsulfinyl-4-quinolone]: in experiment [1], the “% Inhibition of PDE1” value stood at 28%. In addition, in experiment [5], the “% Inhibition of PDE6” value is given as 22%. The inhibition at 100 µM in experiment [2] is 17%; in experiment [3] it was 18%; in experiment [6] it was 32%. The “% Inhibition of PDE4” value in experiment [4] was 6%.
On to `Cn1cc([S@+](C)[O-])c(=O)c2ccc(F)cc21` [(−)-flosequinan, (S)-(−)-7-fluoro-1-methyl-3-methylsulfinyl-4-quinolone], for which the “% Inhibition of PDE1” value in experiment [1] is on record as 11%. Also, the inhibition at 100 µM in experiment [2] was determined as 10%; in experiment [3], 13%; in experiment [6], 5%. Besides, the “% Inhibition of PDE4” value in experiment [4] is on record as 1%.
